{"source": "paper PMC6832221", "about": "(Viruses, 2019)", "key": {"[1]": {"test_system": "genotype 2a HCV replication (J6/JFH1)", "experiment": "GT 2a RT-PCR in J6/JFH1 RNA-transfected Huh7.5 cells", "format": "cell-based, Hepatitis C virus"}, "[2]": {"test_system": "genotype 1b HCV replication (Bart79I)", "experiment": "GT 1b RT-PCR in Bart79I replicon Huh7.5 cells", "format": "cell-based, Hepatitis C virus"}, "[3]": {"test_system": "genotype 2a HCV replication (Rluc-J6/JFH1)", "experiment": "GT 2a luciferase reporter assay in Rluc-J6/JFH1 RNA-transfected Huh7.5 cells", "format": "cell-based, Hepatitis C virus"}, "[4]": {"experiment": "In vivo pharmacokinetic study of SVF in mice", "details": "male, ICR, mouse, plasma"}, "[5]": {"test_system": "HCV NS3 protein expression (genotype 2a)", "experiment": "GT 2a Western blot of HCV NS3 protein in J6/JFH1 RNA-transfected Huh7.5 cells", "format": "cell-based, Hepatitis C virus", "details": "for T1/2 (time required for 50% reduction of the HCV NS3 protein): compound at 10 μM, Western blot, Huh7.5-J6/JFH1 (genotype 2a)"}, "[6]": {"test_system": "HCV NS3 protein level (genotype 1b)", "experiment": "GT 1b Western blot of HCV protein in Bart79I RNA-transfected Huh7.5 cells", "format": "cell-based, Hepatitis C virus", "details": "for T1/2 (time for 50% reduction of HCV protein): compound at 10 μM, Western blot, Huh7.5-Bart79I (genotype 1b)"}, "Huh7.5 cells": {"test_system": "Huh7.5 cells", "experiment": "in vitro", "format": "cell-based", "details": "Table 1 summary; read-out: CC50 (M), GT 2a luciferase reporter assay"}, "[7]": {"design": "method as in ref 25 = [25]", "details": "mice; cited from earlier work"}, "in vitro": {"experiment": "in vitro", "format": "cell-based", "details": "human; Table 1 summary; read-out: CC50 (M), GT 2a luciferase reporter assay"}, "[8]": {"biological_target": "T1, genotype 1b HCV NS3 helicase (Hepatitis C virus genotype 1b, UniProt Q9WMX2)", "T1 construct": "2 nM of HCV NS3 helicase in a total volume of 60 μL", "T1 sequence (Q9WMX2 1027-1657)": "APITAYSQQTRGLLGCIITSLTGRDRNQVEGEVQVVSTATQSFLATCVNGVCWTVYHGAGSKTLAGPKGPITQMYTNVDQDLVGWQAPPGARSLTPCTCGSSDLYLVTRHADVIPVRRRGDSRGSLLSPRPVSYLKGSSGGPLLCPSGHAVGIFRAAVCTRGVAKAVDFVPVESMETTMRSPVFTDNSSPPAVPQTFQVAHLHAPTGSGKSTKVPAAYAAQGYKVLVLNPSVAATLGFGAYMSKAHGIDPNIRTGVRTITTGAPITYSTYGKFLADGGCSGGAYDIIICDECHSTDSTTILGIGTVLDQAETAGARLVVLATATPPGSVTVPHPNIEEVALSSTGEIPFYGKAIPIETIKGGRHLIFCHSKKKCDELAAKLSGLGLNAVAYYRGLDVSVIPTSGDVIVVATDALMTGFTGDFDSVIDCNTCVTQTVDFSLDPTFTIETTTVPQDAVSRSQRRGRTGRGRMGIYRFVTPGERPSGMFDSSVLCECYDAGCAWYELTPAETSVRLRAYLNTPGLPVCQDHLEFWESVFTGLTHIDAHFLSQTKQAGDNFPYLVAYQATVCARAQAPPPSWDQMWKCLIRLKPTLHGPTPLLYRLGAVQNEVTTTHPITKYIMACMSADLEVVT", "experiment": "Graphene oxide (GO)-based NS3 helicase inhibition assay", "format": "biochemical"}, "HCV replication": {"test_system": "HCV replication", "design": "method as in ref 14 = [14]", "details": "previous study, cited from earlier work"}, "[9]": {"details": "cited from earlier work"}, "viral helicase NS3": {"biological_target": "viral helicase NS3", "design": "method as in ref 14 = [14]", "details": "previous study; cited from earlier work"}, "[10]": {"design": "method as in ref 14 = [14]", "details": "previous study; cited from earlier work"}, "[11]": {"details": "read-out: EC50 (M), GT 2a RT-PCR, Table 1 summary"}, "[12]": {"details": "read-out: EC50 (M), GT 1b RT-PCR, Table 1 summary"}, "[13]": {"details": "read-out: EC50 (M), GT 2a Western blot, Table 1 summary"}, "[14]": {"details": "Hepatitis C virus, GETYPE2A|GT2A, Huh7.5, read-out: EC50 (M), GT 2a luciferase reporter assay, Table 1 summary"}, "[15]": {"details": "Hepatitis C virus, Huh7.5, read-out: EC50 (M), GT 1b Western blot"}}, "note": "Where two headings read alike, the source gives them in different places.", "data": [{"smiles": "Oc1ccc(/C=C/c2cc(O)cc3c2C(c2cc(O)cc(O)c2)C(c2ccc(O)cc2)O3)cc1", "note": "(racemic) [SVF, (±)- -viniferin]", "values": [{"measurement": "EC50", "setting": "[1]; [11]", "result": "9.3e-06", "unit": "M"}, {"measurement": "EC50", "setting": "[2]; [12]", "result": "1.7e-06", "unit": "M"}, {"measurement": "EC50", "setting": "[3]; read-out: EC50 (M), GT 2a luciferase reporter assay, Table 1 summary", "result": "2e-07", "unit": "M"}, {"measurement": "Cmax", "setting": "[4]; ip, intraperitoneal dose of 15 mg/kg, read-out: Cmax", "result": "2130 ± 403", "unit": "ng/mL"}, {"measurement": "Tmax", "setting": "[4]; oral dose of 50 mg/kg", "result": 0.375, "unit": "h"}, {"measurement": "Cmax", "setting": "[4]; oral dose of 50 mg/kg, read-out: mean Cmax", "result": "53.5 ± 28.2", "unit": "ng/mL"}, {"measurement": "T1/2 (time required for 50% reduction of the HCV NS3 protein)", "setting": "[5]", "result": 37.1, "unit": "h"}, {"measurement": "EC50", "setting": "[5]; [13]", "result": "6.4e-06", "unit": "M"}, {"measurement": "T1/2 (time for 50% reduction of HCV protein)", "setting": "[6]", "result": 13.1, "unit": "h"}, {"measurement": "EC50", "setting": "[6]; read-out: EC50 (M), GT 1b Western blot, Table 1 summary", "result": "9e-07", "unit": "M"}, {"measurement": "CC50", "setting": "Huh7.5 cells", "result": "> 1e-05", "unit": "M"}, {"measurement": "oral bioavailability", "setting": "[7]", "result": "below 1%"}]}, {"smiles": "CC(=O)Oc1ccc(/C=C/c2cc(OC(C)=O)cc3c2C(c2cc(OC(C)=O)cc(OC(C)=O)c2)C(c2ccc(OC(C)=O)cc2)O3)cc1", "note": "(racemic) [SVF-5Ac, penta-acetylated (±)- -viniferin]", "values": [{"measurement": "EC50", "setting": "[1]; Hepatitis C virus, GETYPE2A|GT2A, Huh7.5, read-out: EC50 (M), GT 2a RT-PCR, Table 1 summary", "result": "4.7e-06", "unit": "M"}, {"measurement": "EC50", "setting": "[2]; Hepatitis C virus, GETYPE1B|GT1B, Huh7.5, read-out: EC50 (M), GT 1b RT-PCR, Table 1 summary", "result": "1.04e-05", "unit": "M"}, {"measurement": "EC50", "setting": "[3]; [14]", "result": "2.4e-06", "unit": "M"}, {"measurement": "EC50", "setting": "[5]; Hepatitis C virus, GETYPE2A|GT2A, Huh7.5, read-out: EC50 (M), GT 2a Western blot, Table 1 summary", "result": "1e-06", "unit": "M"}, {"measurement": "T1/2 (time required for 50% reduction of the HCV NS3 protein)", "setting": "[5]", "result": ">72", "unit": "h"}, {"measurement": "EC50", "setting": "[6]; [15]", "result": "8e-07", "unit": "M"}, {"measurement": "T1/2 (time for 50% reduction of HCV protein)", "setting": "[6]", "result": 29.6, "unit": "h"}, {"measurement": "CC50 at 72 h", "setting": "in vitro", "result": "> 1e-05", "unit": "M"}]}, {"smiles": "Oc1ccc(/C=C/c2cc(O)cc3c2C(c2cc(O)cc(O)c2)C(c2ccc(O)cc2)O3)cc1", "note": "(stereo not drawn) [EVF, (+)-ε-viniferin]", "values": [{"measurement": "fold more antiviral activity than SVF", "setting": "[1]; genotype 2a RT-PCR-based HCV replication assay", "result": 3.2, "unit": "fold"}, {"measurement": "EC50", "setting": "[1]; [11]", "result": "2.9e-06", "unit": "M"}, {"measurement": "EC50", "setting": "[2]; [12]", "result": "7e-06", "unit": "M"}, {"measurement": "EC50", "setting": "[3]; [14]", "result": "1e-07", "unit": "M"}, {"measurement": "fold more antiviral activity than SVF", "setting": "[3]; genotype 2a renilla luciferase-based HCV replication assay", "result": 2.0, "unit": "fold"}, {"measurement": "T1/2 (time required for 50% reduction of the HCV NS3 protein)", "setting": "[5]", "result": 35.1, "unit": "h"}, {"measurement": "EC50", "setting": "[5]; [13]", "result": "1.2e-06", "unit": "M"}, {"measurement": "EC50", "setting": "[6]; [15]", "result": "9e-07", "unit": "M"}, {"measurement": "T1/2 (time for 50% reduction of HCV protein)", "setting": "[6]", "result": 58.2, "unit": "h"}, {"measurement": "CC50 at 72 h", "setting": "in vitro", "result": "> 1e-05", "unit": "M"}, {"measurement": "IC50", "setting": "[8]; Cy5-dsDNA substrate, 2 nM HCV NS3 helicase, fluorescence Ex/Em 650/675 nm, read-out: IC50 (half maximal inhibitory concentration), NS3 helicase", "result": 58.7, "unit": "nM"}]}, {"smiles": "Oc1ccc(/C=C/c2cc(O)cc(O)c2)cc1", "note": "[resveratrol, reference compound]", "values": [{"measurement": "dose-dependent increase of fluorescence (helicase inhibition)", "setting": "[8]; negative control, up to a concentration of 10 μM", "result": "did not"}]}, {"smiles": "Oc1ccc(/C=C/c2cc(O)cc3c2C(c2cc(O)cc(O)c2)C(c2ccc(O)cc2)O3)cc1", "note": "(stereo not shown) [viniferin]", "values": [{"measurement": "EC50", "setting": "HCV replication; read-out: EC50 value for inhibiting HCV replication in vitro", "result": 1000, "unit": "nM"}, {"measurement": "oral bioavailability", "setting": "[9]", "result": "less than 1%"}]}, {"smiles": "Oc1ccc([C@H]2Oc3cc(O)cc(/C=C/c4ccc5c(c4)[C@@H](c4cc(O)cc6c4[C@H](c4cc(O)cc(O)c4)[C@@H](c4ccc(O)cc4)O6)[C@H](c4ccc(O)cc4)O5)c3[C@@H]2c2cc(O)cc(O)c2)cc1", "note": "[vitisin B]", "values": [{"measurement": "IC50", "setting": "viral helicase NS3", "result": 3, "unit": "nM"}, {"measurement": "EC50", "setting": "HCV replication; read-out: EC50, anti-HCV activity", "result": 6, "unit": "nM"}, {"measurement": "CC50", "setting": "[10]", "result": "> 10000", "unit": "nM"}]}]}
